# Measurements taken from PubChem BioAssay (NCI).
#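 Cultured in 96-well plates, cells were exposed to test compound for 48 hours across five concentrations. TGI is the concentration that stops growth completely.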
# Key:
# Assay in all cases: DTP human tumour cell line panel, 48 h
# [1] = tested on: NCI/ADR-RES ovarian
# [2] = tested on: SF-268 CNS
# [3] = tested on: OVCAR-5 ovarian
# [4] = tested on: MALME-3M melanoma
# [5] = tested on: BT-549 breast
# [6] = tested on: A498 renal
# [7] = tested on: UACC-257 melanoma
# [8] = tested on: MDA-MB-435
# [9] = tested on: KM12 colon
# [10] = tested on: K-562 leukemia
SMILES,TGI [1] [µM],TGI [2] [µM],TGI [3] [µM],TGI [4] [µM],TGI [5] [µM],TGI [6] [µM],TGI [7] [µM],TGI [8] [µM],TGI [9] [µM],TGI [10] [µM]
COC(=O)C1(O)C(c2ccccc2)=NC2(C)CCCC21 (stereo not given),> 100,> 100,> 100,> 100,> 100,> 100,> 100,> 100,> 100,> 100
CC(=O)n1nc(-c2ccccc2)n(/N=C/c2ccc([N+](=O)[O-])o2)c1=O,27.5,14.1,10.2,16.5,17.6,45,12.2,12.1,36.4,37
Cc1cc(O)c(-c2cc(O)c(C)cc2O)cc1O,97.1,37.8,32.9,25.5,26.7,41.8,20.1,9.32,27.5,4.65
COc1ccc(Oc2cnn(C(Br)(Br)C(C)=O)c(=O)c2Br)cc1,43.9,29,32.2,32.2,32.1,59.9,28.5,23.4,31.4,16.9
O=S1(=O)c2cnccc2NC(=NCc2ccccc2)N1c1ccccc1,> 100,> 100,> 100,> 100,> 100,> 100,> 100,> 100,> 100,> 100
O=[N+]([O-])c1cc(Cl)ccc1Sc1ccccc1,> 100,> 100,> 100,> 100,> 100,> 100,> 100,> 100,> 100,> 100
CC1=NNC(=O)C1C1CC(c2c[nH]c3ccccc23)=NN=C1Cl (stereo not given),> 100,> 100,> 100,> 100,> 100,> 100,> 100,> 100,69.3,88.6
C[n+]1c(/C=C/c2ccc(O)c3ncccc23)[se]c2ccccc21,28.7,27.6,40.4,20.3,35,30.5,11.1,28.4,25.2,44.4
O=C(O)CN(CC(=O)O)C(C(=O)O)c1ccccc1 (stereo not given),> 100,> 100,> 100,> 100,> 100,> 100,> 100,> 100,> 100,> 100
CCOC(=O)C1CCC(=O)N1C(=O)c1ccccc1Cl (stereo not given),> 100,> 100,> 100,> 100,> 100,> 100,> 100,> 100,> 100,> 100
O=C1c2cccc(O)c2C(=O)c2c(OC3OC(CO)C(O)C(O)C3O)cccc21 (stereo not given),68.4,67.6,> 100,20.9,93.3,> 100,39.9,39.7,> 100,> 100
N#Cc1c(-c2ccccc2)c2c([nH]c1=O)-c1cc([N+](=O)[O-])ccc1CCC2,71.5,> 100,> 100,> 100,42.7,41,> 100,> 100,> 100,> 100
O=C(OCC1OC(n2nc(Cn3nnc(-c4cccnc4)n3)n(-c3cccc4ccccc34)c2=S)C(OC(=O)c2ccccc2)C1OC(=O)c1ccccc1)c1ccccc1 (stereo not given),> 100,> 100,> 100,> 100,> 100,> 100,> 100,> 100,> 100,> 100
c1ccc([P+](CCCCCCCC[P+](c2ccccc2)(c2ccccc2)c2ccccc2)(c2ccccc2)c2ccccc2)cc1,> 100,> 100,> 91.1,> 100,> 100,> 86.4,> 37.7,> 68.4,49.5,> 100
CN(C)c1ccc(Cc2cc3c(O)ccc(O)c3cc(Cc3ccc(N(C)C)cc3)c2=O)cc1,> 81.8,> 77.5,> 70,45.4,32.2,> 75.5,48.9,36.9,40,10.6
O=C(CC(=O)Nc1ccccc1)NNC(c1cc(N=Nc2ccc(Br)cc2)ccc1O)P(O)O (stereo not given),> 10,> 10,> 10,> 10,> 10,8.72,> 10,> 10,> 10,> 10
COc1cccc2c1OCC1Cc3ccccc3OC21 (stereo not given),> 100,> 100,> 100,> 100,52.2,> 100,65.3,75.3,> 100,> 100
Cc1c(-c2ccccc2)[nH]n(C2=NCCN2)c1=O,> 100,> 100,> 100,> 100,> 100,> 100,> 100,> 100,> 100,> 100
CCNc1ncnc2sc(SCc3ccccc3)nc12,> 100,> 100,> 100,> 100,> 100,> 100,> 100,> 100,> 100,> 100
CC(C)/C(Cl)=N/OC(=O)Nc1ccc(OC(F)(F)F)cc1,33.6,39.1,29.2,6.5,29.8,32.9,26.6,25.3,30.3,4.15
Clc1ccc(/C(=C\c2ccccc2)Cn2ccnc2)cc1,38,53.4,63,27,38,42.1,47.8,34.6,20.7,> 100
CN(C)CCCNC(=O)c1c(O)c2ccccc2n(C)c1=O,> 100,> 100,> 100,> 100,> 100,> 100,> 100,> 100,> 100,> 100
COc1ccc(OC)c2sc(N3C(=O)/C(=C/c4cccc([N+](=O)[O-])c4)N=C3c3ccccc3)nc12,> 100,> 100,> 100,> 100,> 100,> 100,> 100,58.3,> 100,63.7
C[C@H]1[C@H](C)CC[C@]2(C(=O)OC3OC(CO)C(O)C(O)C3O)CC[C@]3(C)C(=CC[C@@H]4[C@@]5(C)C[C@H]6OC(=O)c7cc(O)c(O)c(O)c7-c7c(cc(O)c(O)c7O)C(=O)O[C@@H]6C(CO)(CO)[C@@H]5CC[C@]43C)[C@H]12 (stereo not given in full),> 100,> 100,> 100,> 100,> 100,> 100,> 100,36.2,> 100,> 100
c1ccc(C2CC(=NC3CCCCC3)Nc3ccccc3N2)cc1 (stereo not given),> 100,> 100,> 100,50.1,> 100,93.7,> 100,> 100,> 100,> 100
CC(C)[Si](OC/C(=C/COC(C)(C)C)[C@H]1CC=C(C(=O)c2ccccc2N2CN(C)C(=O)N(C)C2)C1)(C(C)C)C(C)C,32.7,17.3,28.7,21.4,26.5,34.5,23.9,30.3,44.4,> 36.4
C(=C\c1ccccc1)/COc1ccccc1C(N1CCOCC1)n1nc2ccccc2n1 (stereo not given),22.6,28.5,44.9,14.4,26.4,> 100,25.5,1.9,19.8,4.26
CC1(C)N=C2C(=O)c3c([nH]c4ccccc34)[C@]3(C)CCC1CC23 (stereo not given in full),> 6.25,> 6.25,> 6.25,> 6.25,> 6.25,> 6.25,> 6.25,> 6.25,> 6.25,> 6.25
COc1ccc2c(c1)c(=O)c1c(NCCNCCO)ccc3c(=O)n(CCN(C)C)c(=O)n2c31,15,0.619,3.05,0.449,2.49,0.534,1.06,0.305,0.831,0.333
COc1cc2[nH]c(-c3ccccc3)cc(=O)c2c(OC)c1OC,> 100,> 100,> 100,> 100,> 100,> 100,> 100,> 100,> 100,> 100
